Entries after “also recorded” stand apart in the source; their conditions may differ.
Assays:
[1] = plasma in vitro; cited from earlier work
[2] = clinical trials, acute respiratory distress syndrome; cited from earlier work
[3] = in vivo study in male rats; conditions: cited from earlier work
[4] = human, up to 120 minutes

Molecule: CSCC[C@H](NC(=O)[C@@H]1CCCN1C(=O)CNC(=O)[C@H](CCCCN)NC(=O)[C@H](Cc1cnc[nH]1)NC(=O)[C@H](CO)NC(=O)[C@H](CC(C)C)NC(=O)[C@H](CCCNC(=N)N)NC(=O)[C@@H]1CCCN1C(=O)[C@H](CCCNC(=N)N)NC(=O)[C@@H]1CCC(=O)N1)C(=O)N1CCC[C@H]1C(=O)N[C@@H](Cc1ccccc1)C(=O)O [[Pyr^1]apelin-13]
- degradation in rat and mouse plasma compared to dog, monkey and human plasma [1]: more rapid degradation

Molecule: GSK2586881: recombinant human ACE2 for treatment of acute respiratory distress syndrome
- tolerability [2]: well-tolerated

Molecule: pGlu Arg Pro Arg Leu Ser His Lys Gly Pro Met Pro Phe
- fragment found [3]: [Pyr^1]apelin-13(1–12); also recorded: [Pyr^1]apelin-13(1–10); also recorded: [Pyr^1]apelin-13(1–6)
- cleaved bond [4]: Pro10-Met11, major, 120 minutes; also recorded: Ser6-His7, major, 120 minutes; also recorded: Leu5-Ser6, 120 minutes
